Reference: ChEMBL document CHEMBL1201862, “PubChem BioAssay data set” (2004)
Active and inactive are the calls of the source.

Experiments:
[1] = biological target: FAD-linked sulfhydryl oxidase ALR (Homo sapiens, UniProt P55789); assay: ALR-catalysed DTT oxidation blockers – biochemical, H2O2 detection, luminescence, cherry-pick, dose response (AID 493248)
[2] = biological target: SWI/SNF-related matrix-associated actin-dependent regulator of chromatin subfamily A member 2 (Homo sapiens, UniProt P51531); assay: Luminescence-based cell-based high throughput dose response assay to identify activators of the function of SWI/SNF related, matrix associated, actin dependent regulator of chromatin, subfamily a, member 2 (SMARCA2, BRM).; assay type: functional
SWI/SNF-related matrix-associated actin-dependent regulator of chromatin subfamily A member 2, sequence (P51531 whole entry): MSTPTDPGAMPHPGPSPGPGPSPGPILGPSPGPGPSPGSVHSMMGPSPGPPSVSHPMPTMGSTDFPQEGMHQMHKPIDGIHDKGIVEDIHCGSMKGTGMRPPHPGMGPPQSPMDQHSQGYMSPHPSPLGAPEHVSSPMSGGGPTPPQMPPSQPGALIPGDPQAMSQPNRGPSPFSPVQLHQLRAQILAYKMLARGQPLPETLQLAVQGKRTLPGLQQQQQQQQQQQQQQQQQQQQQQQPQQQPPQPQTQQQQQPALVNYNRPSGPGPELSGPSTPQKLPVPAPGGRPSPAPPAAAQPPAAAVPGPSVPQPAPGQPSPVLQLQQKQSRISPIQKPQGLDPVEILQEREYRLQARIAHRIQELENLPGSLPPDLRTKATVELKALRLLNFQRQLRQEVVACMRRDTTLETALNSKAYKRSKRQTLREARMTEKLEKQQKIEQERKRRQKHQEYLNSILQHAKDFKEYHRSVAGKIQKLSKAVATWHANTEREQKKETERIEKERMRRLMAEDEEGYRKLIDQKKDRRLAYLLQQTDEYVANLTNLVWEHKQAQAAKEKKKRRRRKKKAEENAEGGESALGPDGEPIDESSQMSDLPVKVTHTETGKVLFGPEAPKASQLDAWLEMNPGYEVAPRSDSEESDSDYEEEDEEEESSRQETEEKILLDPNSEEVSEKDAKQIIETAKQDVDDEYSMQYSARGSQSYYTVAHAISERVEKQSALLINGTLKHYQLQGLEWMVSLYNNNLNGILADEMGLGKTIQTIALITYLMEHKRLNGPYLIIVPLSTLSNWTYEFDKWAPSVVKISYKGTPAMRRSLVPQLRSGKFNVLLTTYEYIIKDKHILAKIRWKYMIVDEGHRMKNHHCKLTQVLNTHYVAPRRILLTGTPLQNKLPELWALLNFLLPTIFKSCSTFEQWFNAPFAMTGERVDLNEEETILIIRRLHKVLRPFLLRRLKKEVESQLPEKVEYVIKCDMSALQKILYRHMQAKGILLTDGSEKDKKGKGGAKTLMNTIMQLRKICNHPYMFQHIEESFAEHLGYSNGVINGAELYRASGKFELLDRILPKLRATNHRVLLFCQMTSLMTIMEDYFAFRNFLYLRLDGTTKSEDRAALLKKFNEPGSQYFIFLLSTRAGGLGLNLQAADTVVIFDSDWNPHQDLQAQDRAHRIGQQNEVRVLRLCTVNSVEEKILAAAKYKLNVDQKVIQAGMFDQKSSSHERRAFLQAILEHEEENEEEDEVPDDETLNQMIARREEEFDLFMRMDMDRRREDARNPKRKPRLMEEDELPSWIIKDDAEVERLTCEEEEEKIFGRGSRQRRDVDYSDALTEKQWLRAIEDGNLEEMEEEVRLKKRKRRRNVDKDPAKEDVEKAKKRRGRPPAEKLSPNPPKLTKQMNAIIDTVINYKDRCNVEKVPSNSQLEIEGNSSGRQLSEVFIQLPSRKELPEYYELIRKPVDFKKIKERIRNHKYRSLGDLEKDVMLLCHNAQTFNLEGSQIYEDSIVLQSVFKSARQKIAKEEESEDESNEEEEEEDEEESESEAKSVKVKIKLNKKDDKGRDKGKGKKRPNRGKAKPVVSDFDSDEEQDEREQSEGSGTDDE

[3] = Counterscreen for activators of the function of SWI/SNF related, matrix associated, actin dependent regulator of chromatin, subfamily a, member 2 (SMARCA2, BRM): Luminescence-based cell-based high throughput dose response assay to identify non-selective compounds using the VP16 reporter assay.; assay type: functional
Paired box protein Pax-8 = Paired box protein Pax-8 (Homo sapiens, UniProt Q06710); assay: PAX8 transcriptional activity inhibition in RMG-I – RMG-I cells, luciferase, cherry-pick, dose response (AID 687027); assay type: functional, cell-based;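 note: luciferase reporter driven by Pax8 target thyroperoxidase promoter measured by SteadyGlo luminescence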
Paired box protein Pax-8, sequence (Q06710 whole entry): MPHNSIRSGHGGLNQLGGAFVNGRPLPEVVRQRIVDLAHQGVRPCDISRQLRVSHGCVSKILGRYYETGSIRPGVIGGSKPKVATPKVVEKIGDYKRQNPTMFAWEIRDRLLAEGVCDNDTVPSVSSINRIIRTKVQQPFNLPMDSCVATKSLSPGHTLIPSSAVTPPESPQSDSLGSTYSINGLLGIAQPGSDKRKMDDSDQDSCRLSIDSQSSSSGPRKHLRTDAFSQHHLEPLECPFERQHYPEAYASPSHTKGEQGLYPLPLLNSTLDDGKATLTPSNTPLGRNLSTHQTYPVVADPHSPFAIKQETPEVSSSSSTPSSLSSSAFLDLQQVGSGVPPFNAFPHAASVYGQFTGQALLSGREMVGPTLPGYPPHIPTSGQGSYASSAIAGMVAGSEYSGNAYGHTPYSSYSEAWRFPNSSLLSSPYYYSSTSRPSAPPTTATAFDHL

[4] = general cell-killing toxicity readout – plate reader, dry powder samples, cytotoxicity control for PAX8 inhibitor project, dose response (AID 743021); assay type: functional, cell-based
[5] = mouse fibroblast viability loss – cell-based, cherry-pick samples, set 2, cytotoxicity control for T. cruzi growth inhibitor project, dose response (AID 651817); assay type: functional; details: NIH3T3
[6] = CMV-driven luciferase expression suppression in HEK293 – cell-based, luminescence, dry powder, counter-screen for Pax8 inhibitor project, dose response (AID 743020); assay type: functional
[7] = OVCAR-3 cell viability loss – plate reader, dry powder samples, PAX8 inhibitor project, dose response (AID 743044); assay type: functional, cell-based
[8] = OVCAR8 cell viability loss – plate reader, dry powder samples, PAX8 project, dose response (AID 743197); assay type: functional, cell-based; details: OVCAR-8
[9] = biological target: Glucose-6-phosphate 1-dehydrogenase (Homo sapiens, UniProt P11413); assay: inhibition of Homo sapiens G6PD, dose series – biochemical, fluorescence, selectivity assay for P. falciparum G6PD inhibitor project, dose response (AID 504792); assay type: functional
Glucose-6-phosphate 1-dehydrogenase, sequence (P11413 whole entry): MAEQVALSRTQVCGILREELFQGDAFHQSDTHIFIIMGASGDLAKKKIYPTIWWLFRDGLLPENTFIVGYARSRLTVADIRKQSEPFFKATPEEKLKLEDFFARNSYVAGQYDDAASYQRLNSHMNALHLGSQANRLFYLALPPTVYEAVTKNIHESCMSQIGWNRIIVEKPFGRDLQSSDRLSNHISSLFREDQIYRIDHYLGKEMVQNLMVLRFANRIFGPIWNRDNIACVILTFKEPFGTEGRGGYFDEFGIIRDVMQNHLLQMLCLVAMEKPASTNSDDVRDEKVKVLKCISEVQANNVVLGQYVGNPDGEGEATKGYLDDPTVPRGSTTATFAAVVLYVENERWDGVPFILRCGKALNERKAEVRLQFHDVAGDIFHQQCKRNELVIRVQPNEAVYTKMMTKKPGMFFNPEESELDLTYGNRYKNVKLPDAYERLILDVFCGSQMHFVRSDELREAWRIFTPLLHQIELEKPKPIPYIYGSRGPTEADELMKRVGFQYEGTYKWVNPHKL

[10] = biological target: Heat shock protein HSP 90-alpha (Homo sapiens, UniProt P07900); assay type: functional, organism-based
Vero = assay: viability of Vero cells under compound – cytotoxicity control for flavivirus capping enzyme inhibitors (AID 588742); assay type: functional; details: Chlorocebus sabaeus
Genome polyprotein = Genome polyprotein (dengue virus type 2, UniProt P29990); assay: flavivirus cap methylation enzyme inhibition – biochemical, confirmation dose response, primary screen (AID 588689); assay type: functional
Genome polyprotein, sequence (P29990 2492-3391 limits assumed): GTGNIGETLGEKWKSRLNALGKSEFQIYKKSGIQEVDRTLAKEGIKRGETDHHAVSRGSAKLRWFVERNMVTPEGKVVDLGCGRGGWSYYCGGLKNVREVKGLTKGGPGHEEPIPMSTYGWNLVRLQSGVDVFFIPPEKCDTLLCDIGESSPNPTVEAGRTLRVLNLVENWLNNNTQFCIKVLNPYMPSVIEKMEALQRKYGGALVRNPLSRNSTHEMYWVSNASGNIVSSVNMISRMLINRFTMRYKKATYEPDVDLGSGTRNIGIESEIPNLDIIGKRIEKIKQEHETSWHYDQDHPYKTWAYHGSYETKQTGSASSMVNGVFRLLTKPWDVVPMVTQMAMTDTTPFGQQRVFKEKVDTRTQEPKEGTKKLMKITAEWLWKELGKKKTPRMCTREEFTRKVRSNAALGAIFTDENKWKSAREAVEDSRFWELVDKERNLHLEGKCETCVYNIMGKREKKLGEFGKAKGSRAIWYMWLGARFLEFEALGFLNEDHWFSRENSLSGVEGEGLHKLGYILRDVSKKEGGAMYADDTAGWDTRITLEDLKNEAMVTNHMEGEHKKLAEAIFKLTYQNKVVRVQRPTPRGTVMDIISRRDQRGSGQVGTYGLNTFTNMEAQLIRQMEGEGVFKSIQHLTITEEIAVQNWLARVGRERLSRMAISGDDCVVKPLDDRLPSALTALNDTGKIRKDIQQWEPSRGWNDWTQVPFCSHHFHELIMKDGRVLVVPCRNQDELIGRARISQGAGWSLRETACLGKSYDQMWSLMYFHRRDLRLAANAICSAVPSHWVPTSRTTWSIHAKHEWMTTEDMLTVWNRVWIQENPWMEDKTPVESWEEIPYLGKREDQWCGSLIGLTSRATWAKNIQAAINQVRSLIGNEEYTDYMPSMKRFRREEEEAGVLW

[11] = Fluorescence-based cell-based high throughput dose response assay for inhibitors of the interaction of nucleotide-binding oligomerization domain containing 2 (NOD2) and the receptor-interacting serine-threonine kinase 2 (RIPK2).; assay type: functional; details: Homo sapiens
[12] = biological target: Photoreceptor-specific nuclear receptor (Homo sapiens, UniProt Q9Y5X4); assay type: functional, cell-based;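 note: CHO-S cells with Gal4-NCOR and VP16-NR2E3 two-hybrid luciferase reporter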
Photoreceptor-specific nuclear receptor, sequence (Q9Y5X4 whole entry, the tested form may be a part): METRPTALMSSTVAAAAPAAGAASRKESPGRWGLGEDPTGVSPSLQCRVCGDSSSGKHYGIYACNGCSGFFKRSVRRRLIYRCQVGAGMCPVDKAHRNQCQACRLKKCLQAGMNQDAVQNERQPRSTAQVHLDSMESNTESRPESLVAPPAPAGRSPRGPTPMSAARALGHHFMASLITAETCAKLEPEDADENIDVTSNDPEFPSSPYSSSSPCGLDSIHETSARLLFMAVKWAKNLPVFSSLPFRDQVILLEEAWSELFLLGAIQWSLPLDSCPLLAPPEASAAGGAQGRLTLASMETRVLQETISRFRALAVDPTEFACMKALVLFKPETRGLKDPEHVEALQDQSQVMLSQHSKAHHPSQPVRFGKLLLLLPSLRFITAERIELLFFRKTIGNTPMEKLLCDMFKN

Beta Lactamase = Beta Lactamase (Pseudomonas aeruginosa, UniProt Q932Y6); assay: BLA reporter interference, concentration series – BLA reporter cells, FRET fluorescence, artefact control for NOD2-RIPK2 interaction inhibitor project, dose response (AID 651552); assay type: functional, cell-based
Beta Lactamase, sequence (Q932Y6 whole entry): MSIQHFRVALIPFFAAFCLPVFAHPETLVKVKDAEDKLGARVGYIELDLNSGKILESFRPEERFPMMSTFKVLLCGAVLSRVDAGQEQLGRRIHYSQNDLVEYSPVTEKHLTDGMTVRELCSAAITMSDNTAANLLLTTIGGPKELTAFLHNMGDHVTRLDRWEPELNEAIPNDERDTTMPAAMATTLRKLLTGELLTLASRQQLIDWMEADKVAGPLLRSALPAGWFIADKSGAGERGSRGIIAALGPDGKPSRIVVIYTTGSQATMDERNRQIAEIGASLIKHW

[13] = viability loss in HeLa cells – cytotoxicity control for MgcRacGAP inhibitor project, dose response (AID 624300); assay type: functional
[14] = biological target: T1, Rac GTPase-activating protein 1 (Homo sapiens, UniProt Q9H0H5); assay: blockers of MgcRacGAP-driven Rac1 GTP hydrolysis – biochemical, ADP Hunter fluorescence, primary and confirmatory, confirmation (AID 624330); assay type: functional
T1 sequence (Q9H0H5 whole entry): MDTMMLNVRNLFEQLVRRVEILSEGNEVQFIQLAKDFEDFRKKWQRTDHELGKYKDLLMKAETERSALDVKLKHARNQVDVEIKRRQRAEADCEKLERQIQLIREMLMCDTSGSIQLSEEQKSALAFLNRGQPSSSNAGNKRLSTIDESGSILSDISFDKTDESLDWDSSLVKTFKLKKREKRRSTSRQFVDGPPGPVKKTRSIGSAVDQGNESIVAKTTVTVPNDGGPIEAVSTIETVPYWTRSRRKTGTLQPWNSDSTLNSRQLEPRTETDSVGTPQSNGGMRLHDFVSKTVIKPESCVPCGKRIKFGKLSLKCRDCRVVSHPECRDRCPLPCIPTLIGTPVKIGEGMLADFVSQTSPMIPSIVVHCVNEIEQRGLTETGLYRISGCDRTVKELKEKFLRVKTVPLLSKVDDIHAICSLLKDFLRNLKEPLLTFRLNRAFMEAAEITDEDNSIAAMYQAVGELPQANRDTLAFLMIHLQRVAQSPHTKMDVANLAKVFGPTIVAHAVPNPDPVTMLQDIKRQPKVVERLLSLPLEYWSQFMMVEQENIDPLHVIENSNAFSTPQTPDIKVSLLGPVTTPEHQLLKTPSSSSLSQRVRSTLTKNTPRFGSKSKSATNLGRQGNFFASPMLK

[15] = viability loss in HEK293T cells – cell-based, cherry-picks, cytotoxicity control for HIV Vif inhibitor project, dose response (AID 652208); assay type: functional
cells = assay type: functional, cell-based
[16] = HEK-293T cell viability reduction – luminescence, B-cell screen hits, cytotoxicity control for BCR NF-kB inhibitor project, dose response (AID 489021); assay type: functional, cell-based;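 note: HEK-293T cells carrying an NF-kB luciferase reporter; cells exposed to compound for about 14 hours before viability readout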
Protein Wnt-3a [17] = biological target: T2, Protein Wnt-3a (Mus musculus, UniProt P27467); assay: antagonism of Wnt3a pathway luciferase reporter – Wnt-LIGHT cells, luminescence, selectivity assay for Gli-SUFU antagonist project, dose response (AID 651570); assay type: functional; details: read-out: IC50_Mean;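 note: Wnt-LIGHT reporter cells stimulated with conditioned medium from Wnt3a-producing cells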
T2 sequence (P27467 whole entry): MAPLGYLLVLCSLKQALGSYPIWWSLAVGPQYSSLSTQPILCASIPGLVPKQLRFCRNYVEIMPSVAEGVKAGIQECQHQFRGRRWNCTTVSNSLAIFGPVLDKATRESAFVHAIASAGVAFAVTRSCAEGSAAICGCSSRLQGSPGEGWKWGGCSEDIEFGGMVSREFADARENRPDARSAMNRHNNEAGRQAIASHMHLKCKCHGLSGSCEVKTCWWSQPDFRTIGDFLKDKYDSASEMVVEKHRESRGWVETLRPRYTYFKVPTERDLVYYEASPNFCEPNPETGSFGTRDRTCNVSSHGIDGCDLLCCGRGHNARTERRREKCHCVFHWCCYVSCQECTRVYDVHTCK

Protein Wnt-3a [18] = biological target: T2, Protein Wnt-3a; assay: SAR analysis of small molecule antagonists of Gli-SUFU in a Wnt3a luminescent reporter assay.; assay type: functional
[19] = IGROV1 cell killing – plate reader, dry powder samples, PAX8 inhibitor project, dose response (AID 743043); assay type: functional, cell-based; details: IGROV-1
[20] = activation of miR-122 Renilla sensor silencing – cell-based, Huh7 psiCHECK-miR122, Renilla luciferase, cherry-picked, dose response (AID 651956); assay type: functional;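 note: huh7 hepatoma cells stably carrying a psiCHECK-2 miR-122 sensor plasmid; renilla luciferase signal reporting endogenous miR-122 activity after 48 h compound exposure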
[21] = general mammalian cell viability loss – activator set, cherry-pick, cytotoxicity control for miR-122 modulator project, dose response (AID 720690); assay type: functional, cell-based;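 note: HEK293T human cells scored for general mammalian cytotoxicity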
[22] = biological target: T3, Replicative DNA helicase DnaB (Mycobacterium tuberculosis, UniProt P9WMR3); assay: DnaB intein splicing inhibitors, dose response, biochemical, cell-free fluorescence (AID 449749); assay type: functional
T3 sequence (P9WMR3 whole entry): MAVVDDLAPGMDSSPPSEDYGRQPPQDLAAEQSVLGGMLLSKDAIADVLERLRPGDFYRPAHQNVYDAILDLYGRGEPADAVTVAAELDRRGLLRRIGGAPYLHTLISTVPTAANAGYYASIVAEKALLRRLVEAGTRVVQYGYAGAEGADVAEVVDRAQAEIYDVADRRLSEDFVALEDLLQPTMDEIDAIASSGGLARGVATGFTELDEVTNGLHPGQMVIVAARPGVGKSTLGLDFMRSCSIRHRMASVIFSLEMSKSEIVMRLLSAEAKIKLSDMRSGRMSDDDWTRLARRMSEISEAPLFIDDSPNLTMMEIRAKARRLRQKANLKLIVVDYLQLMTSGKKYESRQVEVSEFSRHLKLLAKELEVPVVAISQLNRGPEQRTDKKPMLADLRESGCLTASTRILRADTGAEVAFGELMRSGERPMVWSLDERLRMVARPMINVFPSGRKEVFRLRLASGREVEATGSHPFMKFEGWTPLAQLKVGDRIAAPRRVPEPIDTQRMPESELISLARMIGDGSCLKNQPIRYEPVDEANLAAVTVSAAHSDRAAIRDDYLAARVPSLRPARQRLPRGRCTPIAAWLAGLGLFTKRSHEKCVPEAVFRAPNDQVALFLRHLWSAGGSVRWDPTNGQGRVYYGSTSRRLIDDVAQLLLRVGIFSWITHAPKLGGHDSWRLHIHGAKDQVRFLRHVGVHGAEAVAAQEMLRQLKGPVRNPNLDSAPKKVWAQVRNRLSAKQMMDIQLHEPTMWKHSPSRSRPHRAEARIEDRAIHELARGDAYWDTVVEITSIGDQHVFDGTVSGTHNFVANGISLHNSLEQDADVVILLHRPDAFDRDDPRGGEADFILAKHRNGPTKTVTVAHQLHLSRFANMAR

Protein RecA = biological target: T4, Protein RecA (Mycobacterium tuberculosis, UniProt P9WHJ3); assay: Fluorescence Cell-Free Homogeneous Dose Retest to Identify Inhibitors of RecA-Intein Splicing Activity. [Related pubchem assays (depositor defined):AID2097, AID2223, AID489010, AID492950]; assay type: functional
T4 sequence (P9WHJ3 whole entry): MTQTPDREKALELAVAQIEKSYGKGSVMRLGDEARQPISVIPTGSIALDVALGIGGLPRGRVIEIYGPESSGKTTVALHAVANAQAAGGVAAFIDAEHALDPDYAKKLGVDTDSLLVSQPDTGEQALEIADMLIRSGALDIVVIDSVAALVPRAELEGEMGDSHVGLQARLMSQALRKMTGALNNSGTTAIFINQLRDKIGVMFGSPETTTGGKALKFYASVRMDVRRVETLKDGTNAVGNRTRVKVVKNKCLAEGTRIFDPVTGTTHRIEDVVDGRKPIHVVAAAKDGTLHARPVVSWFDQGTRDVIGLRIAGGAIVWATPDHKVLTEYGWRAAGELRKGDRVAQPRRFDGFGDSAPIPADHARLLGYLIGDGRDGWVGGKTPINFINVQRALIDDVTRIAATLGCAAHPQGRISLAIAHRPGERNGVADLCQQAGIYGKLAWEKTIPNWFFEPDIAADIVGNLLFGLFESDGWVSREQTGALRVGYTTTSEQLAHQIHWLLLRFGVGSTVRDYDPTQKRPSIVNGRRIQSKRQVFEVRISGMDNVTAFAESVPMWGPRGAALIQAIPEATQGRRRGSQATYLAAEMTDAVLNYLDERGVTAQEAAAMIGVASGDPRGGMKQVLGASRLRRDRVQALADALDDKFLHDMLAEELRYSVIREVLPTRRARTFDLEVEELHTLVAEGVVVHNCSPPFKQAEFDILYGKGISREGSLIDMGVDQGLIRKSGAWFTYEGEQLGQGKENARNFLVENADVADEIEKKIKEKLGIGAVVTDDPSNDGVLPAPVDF

[23] = reduction of Shn3 3'UTR-driven luciferase in osteoblasts – cell-based, Clone20 osteoblasts, firefly luciferase, cherry-picked, dose response (AID 624132); assay type: functional;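 note: firefly luciferase luminescence from reporter carrying the Shn3 3'UTR in osteoblasts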
[24] = loss of viability in HepG2 cells – cell-based, CellTiter-Glo, cherry-picked, cytotoxicity control for Shn3 inhibitor project, dose response (AID 624134); assay type: functional
[25] = non-specific 3'UTR reporter inhibition in Clone20-Shn3RL – cell-based, Renilla luciferase, cherry-picked, counter-screen for Shn3 inhibitor project, dose response (AID 624133); assay type: functional

FAD-linked sulfhydryl oxidase ALR, sequence (P55789 whole entry): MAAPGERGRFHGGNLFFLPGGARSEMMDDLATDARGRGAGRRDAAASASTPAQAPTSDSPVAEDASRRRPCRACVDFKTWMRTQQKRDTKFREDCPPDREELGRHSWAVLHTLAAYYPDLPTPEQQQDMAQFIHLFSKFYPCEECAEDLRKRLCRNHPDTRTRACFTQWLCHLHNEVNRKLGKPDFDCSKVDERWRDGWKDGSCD

CN(C)P(=O)(C(Cl)=C(N1CCCCC1)N1CCCCC1)N(C)C
AC50 [1]: 41.1 µM (active)
EC50 [2]: > 91.1 µM (inactive)
EC50 [3]: > 91.1 µM (inactive)

COc1cc(C=C2C(=O)C=CC2=O)ccc1O
AC50 (Paired box protein Pax-8): 1.63 µM (active)
AC50 [4]: 19.1 µM (active)

C[C@H](CO)N1C[C@H](C)[C@H](CN(C)Cc2ccc(Cl)c(Cl)c2)Oc2ccc(NS(=O)(=O)c3ccc(F)cc3)cc2CC1=O
AC50 [5]: 9.99 µM (active)

COc1ccc(NC(=O)N(C)C[C@H]2OCCCC[C@@H](C)Oc3ccc(NC(=O)Nc4ccc(C(F)(F)F)cc4)cc3C(=O)N([C@@H](C)CO)C[C@@H]2C)cc1
AC50 (Paired box protein Pax-8): 3.41 µM (active)
AC50 [6]: 41 µM (active)
AC50 [7]: 24 µM (active)
AC50 [8]: > 70 µM (inactive)

O=C1/C(=C\c2ccc([N+](=O)[O-])cc2)CS(=O)(=O)C/C1=C/c1ccc([N+](=O)[O-])cc1
IC50 [9]: > 80 µM (inactive)
AC50 [10]: 0.353 µM (active)
CC50 (Vero): 0.46 µM (active)
IC50 (Genome polyprotein): > 100 µM (active)
IC50 [11]: 0.93 µM (active)
IC50 [12]: 2 µM (active)
IC50 (Beta Lactamase): 36.4 µM (inactive)
CC50 [13]: 25 µM (active)
IC50 [14]: 24.8 µM (active)

O=C(c1cc(-c2ccncc2)nc2ccccc12)N1CCN(Cc2ccccc2)CC1
AC50 [15]: > 52 µM (inactive)

CCc1nnc(NS(=O)(=O)c2ccc(NC=C3C(=O)CC(C)(C)CC3=O)cc2)s1
IC50 (cells): 60.8 µM (inactive)

O=C1NC(=O)N(c2ccc(Cl)cc2)C(=O)/C1=C\Nc1ccc(S(=O)(=O)Nc2nccs2)cc1
IC50 (cells): 74.7 µM (inactive)

CCc1nc(C)cc2c1sc1ccccc12
EC50 [2]: > 91.2 µM (inactive)
EC50 [3]: > 91.2 µM (inactive)

CCOc1ccc(S(=O)(=O)NCc2ccncc2)cc1NC(=O)c1ccccc1
IC50 [16]: > 80 µM (inactive)
IC50 (Protein Wnt-3a [17]): 33.2 µM (inactive)
IC50 (Protein Wnt-3a [18]): > 21.8 µM (inactive)

Cc1ccc(S(=O)(=O)Nc2ccc3c(c2)CC(=O)N([C@@H](C)CO)C[C@@H](C)[C@H](CN(C)Cc2ccc(Cl)c(Cl)c2)O3)cc1
AC50 [5]: 12.3 µM (active)
AC50 (Paired box protein Pax-8): 5.67 µM (active)
AC50 [7]: 31.8 µM (active)
AC50 [19]: 49.9 µM (active)

CC(C)CNc1cc(NC(=O)c2ccccc2)ncn1
IC50 (Protein Wnt-3a [18]): > 21.8 µM (inactive)

CN1C(=O)c2cc(NS(=O)(=O)c3ccc(Cl)cc3)ccc2OC[C@@H]2O[C@H](CC(=O)N3CCc4ccccc4C3)CC[C@H]21
AC50 [20]: 19.1 µM (active)
AC50 [21]: 46.9 µM (active)

COc1ccc(CNC(=O)c2nc(S(=O)(=O)Cc3ccccc3)ncc2Cl)cc1
AC50 [22]: 4.17 µM (active)
EC50 (Protein RecA): 4.07 µM (active)
AC50 [23]: 0.956 µM (active)
AC50 [24]: 30.8 µM (active)
AC50 [25]: 7.01 µM (active)
IC50 [11]: 2.96 µM (active)
IC50 (Beta Lactamase): 21 µM (inactive)
